Where “and” joins values, the source holds several entries; their conditions need not be identical. Equal entries are not always repeated. Calls of active or inactive are those of the source. The rule behind the calls is not given here.
Assays:
[1] = Relative activity against the cold-induced disassembly of microtubules with respect to rhazinilam (IC50=2*10e-6M).; format: functional
[2] = Inhibitory concentration of compound was determined against KB cells; format: functional, cell-based, Homo sapiens
[3] = Compound was tested for relative activity against the cold-induced disassembly of microtubules with respect to rhazinilam (IC50=2*10e-6M); IA means Inactive; format: functional
[4] = Inhibitory concentration of compound was determined against KB cells; IA means Inactive; format: functional, cell-based, Homo sapiens
[5] = Compound was tested for relative activity against the cold-induced disassembly of microtubules with respect to rhazinilam (IC50=2*10e-6M); Experiment 1; format: functional
[6] = Compound was tested for relative activity against the cold-induced disassembly of microtubules with respect to rhazinilam (IC50=2*10e-6M); Experimemt 2; format: functional
[7] = Inhibitory concentration of compound was determined against disassembly of microtubules; format: functional
[8] = Compound was tested for relative activity against the cold-induced disassembly of microtubules; format: functional
[9] = Compound was tested for relative activity against the cold-induced disassembly of microtubules; IA means Inactive; format: functional

Compound | IC50 [2] [µM] | Ratio [1] | also measured
CC[C@]12CCCn3c(C=O)cc(c31)-c1ccccc1NC(=O)CC2 | – | 6 | –
CC[C@]1(CCC(=O)O)CCCn2ccc(-c3ccccc3N)c21 | – | – | Ratio [3]: inactive
CC[C@@]12CCC(=O)Nc3ccccc3-c3ccn(c31)C(O)CC2 (stereo not given in full) | 3 | 15 | –
CC[C@]12CCCn3c(C(=O)C(Cl)(Cl)Cl)cc(c31)-c1ccccc1NC(=O)CC2 | 25 | 8 | –
CC[C@]12CCCn3ccc(c31)-c1ccccc1N(CC(=O)OCc1ccccc1)C(=O)CC2 | – | 80 | IC50 [4]: Not Active
CC[C@]12CCCn3ccc(c31)-c1ccccc1N(CC(=O)O)C(=O)CC2 | – | 80 | IC50 [4]: Not Active
CC[C@]12CCCn3ccc(c31)-c1cc(NC(C)=O)ccc1NC(=O)CC2 | – | – | IC50 [4]: Not Active; Ratio [3]: inactive
CC[C@]12CCCn3c(C(=O)OC)cc(c31)-c1ccccc1NC(=O)CC2 | 4 | 5 | –
CC[C@@]12CCCN(C(C)=O)c3ccccc3-c3ccn(c31)CCC2 | – | 80 | IC50 [4]: Not Active
CC[C@@]12CCC(=O)Nc3ccccc3-c3ccn(c31)C(=O)CC2 [RHAZINICINE] | 3 | 10 | –
CC[C@@]12CCCN3CC[C@@]4(C(=Nc5ccccc54)CC1)[C@H]32 | – | – | Ratio [3]: inactive
CC[C@]12CCCn3ccc(c31)-c1ccccc1N(C(=O)OC(C)(C)C)C(=O)CC2 | – | 80 | IC50 [4]: Not Active
CC[C@@]12CCCN3CC=C(c4ccccc4NC(=O)CC1)C32 (stereo not given in full) | – | – | Ratio [3]: inactive
CC[C@]12CCCn3ccc(c31)-c1cc(Br)ccc1NC(=O)CC2 | – | 100 | IC50 [4]: Not Active
CC[C@]12CCCn3c(C(=O)O)cc(c31)-c1ccccc1NC(=O)CC2 | 75 | – | Ratio [5]: 5; Ratio [6]: 2 and 3
CC[C@]12CCCn3c(C(=O)C(F)(F)F)cc(c31)-c1ccccc1NC(=O)CC2 | 15 | 4 | –
CC[C@]12CCCn3c(C=O)c(C=O)c(c31)-c1ccccc1NC(=O)CC2 | – | – | Ratio [3]: inactive
CC[C@@]12CCCN3C(=O)C=C(c4ccccc4NC(=O)CC1)[C@]32O | – | – | Ratio [3]: inactive
CC[C@]12CCCn3c(C(=O)OCc4ccc(OC)c(OC)c4OC)cc(c31)-c1ccccc1NC(=O)CC2 | 20 | 7 | –

More lines, main results first:

IC50 [2] [µM] | Compound | Ratio [1] | also measured
10 | CC[C@@]12CCCN(C(=O)OC(C)(C)C)c3ccccc3-c3ccn(c31)CCC2 | 80 | –
1 | CC[C@@]12CCCNc3ccccc3-c3ccn(c31)CCC2 | 20 | –
10 | CC[C@]12CCCn3ccc(c31)-c1ccccc1/N=C(/S)CC2 | 50 | –
60 | CC[C@]12CCCn3ccc(c31)-c1ccccc1N(C)C(=O)CC2 | 4 | –
0.5 | CC[C@]12CCCn3ccc(c31)-c1ccccc1NC(=O)CC2 [RHAZINILAM] | – | IC50 [7]: 2 µM; Ratio [8]: 1; Ratio [9]: inactive

— ChEMBL document CHEMBL1130304, “Hemisynthesis of rhazinilam analogues: structure - activity relationships on tubulin-microtubule system” (Bioorg Med Chem Lett, 1997)
